Results published in patent US7572799B2, “Pyrazolo[4,3-d]pyrimidines as Phosphodiesterase Inhibitors” (Pfizer Inc, priority 2003, dated 2009).
Like-named read-outs stand apart in the source and are kept apart here.

Biological target: PDE-5 (UniProt O76074)
Test: In vitro PDE inhibitory activity against PDE5 (batch method or scintillation proximity assay)
Type: biochemical, human
Settings: representative compounds
Excerpt: The compounds of the invention are inhibitors of cyclic guanylate monophosphate (cGMP)-specific phosphodiesterase type 5 (PDE-5 inhibitors).
The required PDE enzymes can be isolated from a variety of sources, including human corpus cavernosum, human and rabbit platelets, human cardiac ventricle, human skeletal muscle and bovine retina, essentially by a modification of the method of Thompson, W J et al.; Biochemistry 18(23), 5228-5237, 1979, as described by Ballard S A et al.; J. Urology 159(6), 2164-2171, 1998. In particular, cGMP-specific PDE5 and cGMP-inhibited cAMP PDE3 can be obtained from human corpus cavernosum tissue, human platelets or rabbit platelets; cGMP-stimulated PDE2 was obtained from human corpus cavernosum; calcium/calmodulin (Ca/CAM)-dependent PDE1 from human cardiac ventricle; cAMP-specific PDE4 from human skeletal muscle; and photoreceptor PDE6 from bovine retina. Phosphodiesterases 7-11 can be generated from full length human recombinant clones transfected into SF9 cells.
Assays can be performed either using a modification of the “batch”method of Thompson W J and Appleman M M; Biochemistry 10(2), 311-316, 1971, essentially as described by Ballard S A et al.; J. Urology 159(6), 2164-2171, 1998, or using a scintillation proximity assay for the direct detection of [^3H]-labelled AMP/GMP using a modification of the protocol described by Amersham plc under product code TRKQ7090/7100. In summary, for the scintillation proximity assay the effect of PDE inhibitors was investigated by assaying a fixed amount of enzyme in the presence of varying inhibitor concentrations and low substrate, (cGMP or cAMP in a 3:1 ratio unlabelled to [^3H]-labeled at a concentration of ˜⅓ Km, or less) such that IC50≅Ki. The final assay volume was made up to 100 μl with assay buffer [20 mM Tris-HCl pH 7.4, 5 mM MgCl2, 1 mg/ml bovine serum albumin]. Reactions were initiated with enzyme, incubated for 30-60 min at 30° C. to give <30% substrate turnover and terminated with 50 μl yttrium silicate SPA beads (containing 3 mM of the respective unlabelled cyclic nucleotide for PDEs 9 and 11).

| SMILES | IC50 (read-out: IC50) | IC50 |
| --- | --- | --- |
| CCN(C)c1nc(Nc2cc(C)ccn2)c2c(n1)c(C(=O)NS(C)(=O)=O)nn2CCO [Example 185, 5-[Ethyl(methyl)amino]-1-(2-hydroxyethyl)-7-[(4-methylpyridin-2-yl)amino]-N-(methylsulfonyl)-1H-pyrazolo[4,3-d]pyrimidine-3-carboxamide] | 11.5 nM |  |
| CCOCCn1nc(C(=O)O)c2nc(N(C)C)nc(Nc3cc(C)cc(C)n3)c21 [Example 27] | 36.8 nM |  |
| CCOCCn1nc(C(=O)NS(C)(=O)=O)c2nc(N(C)C)nc(Nc3cc(C)ccn3)c21 [Example 114, N-[5-(Dimethylamino)-1-(2-ethoxyethyl)-7-(4-methylpyridin-2-ylamino)-1H-pyrazolo[4,3-d]pyrimidine-3-carbonyl]methanesulfonamide] | 4.83 nM |  |
| CCN(CC)c1nc(Nc2cc(C)ccn2)c2c(n1)c(C(=O)NS(C)(=O)=O)nn2CCOCCCF [Example 177] | 0.17 nM |  |
| CCOCCn1nc(-c2nc(=O)o[nH]2)c2nc(N(C)C(C)C)nc(Nc3cc(C)ccn3)c21 [Example 75, 3-[1-(2-Ethoxyethyl)-5-(N-isopropyl-N-methylamino)-7-(4-methylpyridin-2-ylamino)-1H-pyrazolo[4,3-d]pyrimidin-3-yl]-2H-1,2,4-oxadiazol-5-one] | 0.371 nM |  |
| CCOCCn1nc(C(=O)OC)c2nc(N(C)C(C)C)nc(Nc3cc(C)ccn3)c21 [Example 1, Methyl 1-(2-ethoxyethyl)-5-(N-isopropyl-N-methylamino)-7-(4-methylpyridin-2-ylamino)-1H-pyrazolo[4,3-d]pyrimidine-3-carboxylate] | 0.075 nM |  |
| CCOCCn1nc(C(=O)O)c2nc(N(C)C(C)C)nc(NC3CCOCC3)c21 [Example 83] | 27.8 nM |  |
| Cc1ccnc(Nc2nc(N(C)C)nc3c(C(=O)O)nn(CCOC(C)C)c23)c1 [Example 61] | 13.1 nM |  |
| CCOCCn1nc(C(=O)O)c2nc(N(C)C(C)C)nc(Nc3cc(F)cc(F)c3)c21 [Example 91] | 5.06 nM |  |
| CCCN(C)c1nc(NC2CCCCC2)c2c(n1)c(C(=O)O)nn2CCOCC [Example 30] |  | 35.8 nM |
| CCN(C)c1nc(Nc2cc(C)ccn2)c2c(n1)c(C(=O)O)nn2CCOCC(F)(F)F [Example 127, 5-[Ethyl(methyl)amino]-7-[(4-methylpyridin-2-yl)amino]-1-[2-(2,2,2-trifluoroethoxy)ethyl]-1H-pyrazolo[4,3-d]pyrimidine-3-carboxylic acid] | 6.34 nM |  |
| CCOCCn1nc(C(=O)O)c2nc(N(CC)CC)nc(Nc3ccc(=O)n(C)c3)c21 [Example 125, 5-(Diethylamino)-1-(2-ethoxyethyl)-7-[(1-methyl-6-oxo-1,6-dihydropyridin-3-yl)amino]-1H-pyrazolo[4,3-]pyrimidine-3-carboxylic acid] | 1.53 nM |  |
| CCOCCn1nc(C(=O)OC)c2nc(N3C[C@@H]4C[C@H]3CN4)nc(Nc3cc(C)ccn3)c21 [Example 4] | 2.62 nM |  |
| CCOCCn1nc(C(=O)O)c2nc(N[C@H](C)CC)nc(Nc3cc(C)ccn3)c21 [Example 56] | 9.11 nM |  |
| CCOCCn1nc(C(=O)OC)c2nc(N(C)CC)nc(Nc3ccc(F)c(C)c3)c21 [Example 116, Methyl 1-(2-ethoxyethyl)-5-[ethyl(methyl)amino]-7-[(4-fluoro-3-methylphenyl)amino]-1H-pyrazolo[4,3-d]pyrimidine-3-carboxylate] | 0.032 nM |  |
| CCOCCn1nc(C(=O)O)c2nc(N(C)CC)nc(Nc3cc(C)nc(C)n3)c21 [Example 74] | 100 nM |  |
| CCOCCn1nc(C(=O)O)c2nc(N(C)CC)nc(Nc3ccnc(OC)n3)c21 [Example 70] | 0.451 nM |  |
| CCN(C)c1nc(Nc2cc(C)ccn2)c2c(n1)c(C(=O)NS(C)(=O)=O)nn2CCOC [Example 162] | 3.1 nM |  |
| CCOCCn1nc(C(=O)O)c2nc(N(CC)CC)nc(Nc3cc(C)ccn3)c21 [Example 11] | 1.09 nM |  |
| CCOCCn1nc(C(=O)O)c2nc(N3CCCC3C)nc(Nc3cc(C)ccn3)c21 (stereo not drawn) [Example 53] | 0.797 nM |  |
| CCOCCn1nc(C(=O)O)c2nc(N(C)C(C)C)nc(Nc3ccc(F)c(F)c3)c21 [Example 90] | 2.83 nM |  |

| SMILES | IC50 (read-out: IC50) | IC50 |
| --- | --- | --- |
| CCOCCn1nc(C(=O)O)c2nc(N(C)C)nc(Nc3cc(C)c(C)cn3)c21 [Example 41] | 3.2 nM |  |
| CCOCCn1nc(C(=O)O)c2nc(N(C)C(C)C)nc(Nc3cc(C)cc(C)n3)c21 [Example 26] | 1.64 nM |  |
| CCOCCn1nc(C(=O)O)c2nc(N(C)C)nc(Nc3cccc(C)n3)c21 [Example 39] | 57.2 nM |  |
| CCOCCn1nc(C(=O)O)c2nc(N(C)C)nc(Nc3ccnc(OC)n3)c21 [Example 71] | 2.46 nM |  |
| COCCn1nc(C(=O)O)c2nc(N(C)C(C)C)nc(Nc3cc(C)ccn3)c21 [Example 22] | 7.12 nM |  |
| CO[C@H](C)Cn1nc(C(=O)O)c2nc(N(C)C(C)C)nc(Nc3cc(C)ccn3)c21 [Example 112, (2′R)-5-(N-Isopropyl-N-methylamino)-1-(2′-methoxypropyl)-7-(4-methylpyridin-2-ylamino)-1H-pyrazolo[4,3-d]pyrimidine-3-carboxylic acid] | 14.7 nM |  |
| CCOCCn1nc(C(=O)O)c2nc(N(CC)CC)nc(Nc3ccc(F)c(C)c3)c21 [Example 86] | 0.063 nM |  |
| CCOCCn1nc(C(=O)O)c2nc(N(C)C(C)C)nc(Nc3cc(C)ncn3)c21 [Example 123] | 0.628 nM |  |
| CCOCCn1nc(C(=O)O)c2nc(N(C)C(C)C)nc(Nc3cccc(C)n3)c21 [Example 99] | 2.45 nM |  |
| COC(C)CCn1nc(C(=O)O)c2nc(N(C)C(C)C)nc(Nc3cc(C)ccn3)c21 (stereo not drawn) [Example 107] |  | 0.307 nM |
| CCOCCn1nc(C(=O)O)c2nc(N(C)C(C)C)nc(Nc3cc(C)ccn3)c21 [Example 110, 1-(2-Ethoxyethyl)-5-(N-isopropyl-N-methylamino)-7-(4-methylpyridin-2-ylamino)-1H-pyrazolo[4,3-d]pyrimidine-3-carboxylic acid] | 0.564 nM |  |
| CCOCCn1nc(C(=O)O)c2nc(N(C)C(C)C)nc(Nc3ccccn3)c21 [Example 105] | 0.741 nM |  |
| CCOCCn1nc(C(=O)O)c2nc(N(C)C(C)C)nc(NC3CC3)c21 [Example 34] |  | 100 nM |
| CCOCCn1nc(C(=O)O)c2nc(N(C)C)nc(NC3CCC3)c21 [Example 33] |  | 100 nM |
| CCOCCn1nc(C(=O)OC)c2nc(N3CCN[C@H](C)C3)nc(Nc3cc(C)ccn3)c21 [Example 3] | 5.01 nM |  |
| CCOCCn1nc(C(=O)OCCN(C)C)c2nc(N(C)C(C)C)nc(Nc3cc(C)ccn3)c21 [Example 147, 2-(Dimethylamino)ethyl 1-(2-ethoxyethyl)-5-[isopropyl(methyl)amino]-7-[(4-methylpyridin-2-yl)amino]-1H-pyrazolo[4,3-d]pyrimidine-3-carboxylate] | 0.141 nM |  |
| CCOCCn1nc(C(=O)O)c2nc(N(C)C(C)C)nc(NC3CCCC3)c21 [Example 31] |  | 43.4 nM |
| CCN(CC)c1nc(Nc2cc(C)ccn2)c2c(n1)c(C(=O)NS(C)(=O)=O)nn2CCOCC(F)F [Example 182] | 1.4 nM |  |
| Cc1ccnc(Nc2nc(N(C)C(C)C)nc3c(C(=O)O)nn(CCOC(C)C)c23)c1 [Example 111, 1-(2-Isopropoxyethyl)-5-(N-isopropyl-N-methylamino)-7-(4-methylpyridin-2-ylamino)-1H-pyrazolo[4,3-d]pyrimidine-3-carboxylic acid] | 0.502 nM |  |
| Cc1cccc(Nc2nc(N(C)C(C)C)nc3c(C(=O)O)nn(CCOCC(F)(F)F)c23)c1 [Example 138] | 0.065 nM |  |
| CCCN(CC1CC1)c1nc(Nc2cc(C)ccn2)c2c(n1)c(C(=O)O)nn2CCOCC [Example 49] | 4.92 nM |  |
